The values that follow come from a melting point compilation (Tetko et al.; mined from patent text by program, amines drawn as free bases though some values may be those of a salt).

One may read the melting point as the temperature, or range, at which the solid turns liquid.

Where only a bound is given, the exact number is not on record here.

As to `CNC(=C[N+](=O)[O-])NCCSCc1csc(CO)n1`, the melting point was in the range of 131 to 132 °C.

In turn, `CCCc1nn(C)c2c(=O)[nH]c(-c3cc(NS(C)(=O)=O)ccc3OCC)nc12` showed a melting point of 205 to 206 °C. Then `OCC(CO)c1nc(NCc2ccccn2)c2c(-c3ccccc3)csc2n1`, with 137 to 139 °C; and `CCOC(=O)c1oc(Br)nc1C`, with 94.5 to 95.5 °C. As to `COc1ccc(C)c(N2CCN(C(=O)N(C)c3cc(C)c(C)nc3OC)CC2)c1`, the melting point was 91 to 93 °C. Regarding `O=c1[nH]c2c(cc1S(=O)(=O)c1ccccc1)CCc1cc[nH]c1-2`, the melting point stood at 410 °C.

Regarding `COC(=O)C1(C)CCc2c(C)c(O)c(C)c(C)c2O1` (configuration not stated), the melting point was 132 to 135 °C. Then `CCCCCCCCCCCCCCCC(=O)Nc1ccc(O)c(C(C)=O)c1`, with 120 to 122 °C; and `CC(C)(CCN1CCc2ccc(S(=O)(=O)Nc3cccc(Cl)c3)cc2C1)C(=O)O`, with 120 °C; and `O=C(O)C=CC12CC(c3ccccc31)c1ccccc12`, with 220 to 222 °C. In turn, `CNS(=O)(=O)c1cn(C)c2c(OC)c(OC)c(OC)cc2c1=O` yielded a melting point of 184 to 186 °C.

`CS(=O)(=O)c1ccc(-c2cc(C(=O)CCCO[N+](=O)[O-])nn2-c2ccc(Cl)cc2)cc1` displayed a melting point of 131 to 132 °C. The compound `Cc1ccccc1CNc1cc(Br)cc2c1nc(C)n2C` registered a melting point of 128 to 129 °C. `Cc1c(OCCNC(=O)OC(C)(C)C)noc1-c1ccccc1`: the melting point is 118 to 120 °C. `c1ccc(NCC2CCCO2)cc1` (configuration not stated) yielded a melting point of 149 to 156 °C. As to `Cc1oc(-c2ccc(-c3ccc(-c4nc(CC(=O)OCc5ccccc5)c(C)o4)cc3)cc2)nc1CC(=O)OCc1ccccc1`, the melting point lay in the range of 162 to 168 °C. Then `CN1CC(C(=O)COC(=O)c2ccncc2)CC2c3cccc4[nH]cc(c34)CC21` (configuration not stated), with 158 to 161 °C; and `COCN1C(=O)CN=C(c2ccccc2)c2cc(NO)ccc21`, with 168 to 170 °C; and `COC(=O)CCCS(=O)(=O)c1ccc(C)cc1`, with 23 °C. `CN1CCC(NC2c3ccccc3Oc3ccccc32)CC1` gave a melting point of 96.5 to 98 °C.

Turning to `CCC(C)c1cc(C=O)c(O)c(S(C)(=O)=O)c1` (configuration not stated), the melting point fell in the range of 68 to 70 °C. `Clc1ccc(C(Cn2ccnc2)OCc2cc(Cl)nc3ccccc23)c(Cl)c1` (configuration not stated) had a melting point of 180 to 181 °C. Then `Cn1c(=O)c2c(-c3ccccc3)n(-c3ccccc3N)cc2n(C)c1=O`, with > 300 °C. Then `CN1C(=O)CC2(CC(=O)N(Cc3ccccc3)C2)C1=O` (configuration not stated), with 157 to 158 °C. The value for `O=C(NNC(=O)c1ccccc1C(F)(F)F)c1ccccc1Cl` was 81.5 to 82.5 °C; that for `Cc1ccc(S(N)(=O)=O)cc1-c1nc(C(F)(F)F)oc1-c1ccccc1` was 150 to 151 °C; that for `O=c1oc(-c2cccnc2)cc(O)c1SCc1ccccc1` was 183 to 184 °C. In the case of `CN1CCN(c2nc3ccccc3[nH]2)CC1`, the melting point was 222 to 224 °C.

`CCn1ncnc1COc1nc2c(cc1C(C)(C)C)nnn2-c1cc(F)ccc1F` yielded a melting point of 148 to 150 °C.

`COC(=O)c1ccc(-c2nc(C)no2)s1` yielded a melting point of 154 to 156 °C. Take `CC1(C(O)(Cc2ccccc2Cl)Cn2cncn2)CCCC1` (configuration not stated): the melting point amounted to 110 °C. `CC(COc1ccc(CC2SC(=O)NC2=O)cc1)NCC(O)CSc1ccccc1` (configuration not stated) came in with a melting point of 176 to 177 °C. Then `COc1ccc(C(O)CCc2ccccc2O)cc1` (configuration not stated), with 114 to 116 °C.

As for `N#Cc1cnc2c(oc3ccccc32)c1Nc1cccc(Br)c1`, the melting point was 242 to 245 °C. In turn, `CC(C)(C)OC(=O)NC1CCN(CC(F)(F)F)CC1` had a melting point of 99.2 to 99.8 °C.

As to `C=C(C)C(=O)OCCCOc1ccc(-c2cc(OC(=O)C(=C)C)cc(-c3ccc(OCCCOC(=O)C(=C)C)cc3)c2)cc1`, the melting point turned out to be 49 °C. `NC(=O)C(Cc1ccccc1N1CCCCC1)c1ccc(C(=O)O)cc1` (configuration not stated) registered a melting point of 175 to 177 °C.

`N#Cc1ncn2c(C(F)(F)F)cc(-c3ccccc3Cl)nc12` gave a melting point of 180 °C. The value for `CC1(C)CCC(C)(C)c2cc(-c3cc(-c4ccc(C(=O)O)cc4)ccc3OCCCCN)ccc21` was 250 °C. Then `COc1cc2nc(N3CCN(C(=O)C45CC6CC(CC(C6)C4)C5)CC3)nc(N)c2cc1OC`, with 237 to 240 °C; and `Cc1cccc(C)c1NC(=O)c1ccc(CN2C(=O)C3(COc4cc5c(cc43)CCO5)c3ccccc32)cc1` (configuration not stated), with > 250 °C; and `COC(=O)N1CCC(n2c(=O)[nH]c3cc(Cl)ccc32)C(C)C1` (configuration not stated), with 196 °C.

In turn, `CCOC(=O)Cc1c(-c2ccc(OC)cc2)sc2c1c(=O)c(C(=O)OCC)cn2Cc1ccccc1F` came in with a melting point of 199 to 201 °C. `O=[N+]([O-])C=C1NCCN1Cc1ccc(OCC(F)(F)F)nc1` came in with a melting point of 132 to 135 °C. Compound `CCOC(=O)c1ccn2nc(-c3ccccc3)cc2n1` returned a melting point of 180 to 181 °C.

Compound `CC(C)(O)C(=O)N[C@H]1CC[C@H](CCN2CCN(c3nccc4c3CCO4)CC2)CC1` gave a melting point of 201 °C.

In turn, `COc1cc2c(cc1OC)C(=O)C(=O)N(CCCN(C)CCCSc1cc(Br)c(N)c(Br)c1)CC2` registered a melting point of 118 to 125 °C. Then `OCC1OC(n2cnc3c(NC(c4ccccc4)c4ccccc4)ncnc32)C(O)C1O` (configuration not stated), with 89 to 96 °C; and `Cc1cccc(NC(=O)NCC(=O)N(c2ccccc2)C(C(=O)OC(C)(C)C)c2ccc(Cl)cc2)c1` (racemic), with 167 °C.

`COC(=O)CNc1ccc2c(c1)OCO2` yielded a melting point of 105 to 106 °C.

`COc1cc(Nc2c(C#N)cnc3cc4cc(OC)c(OC)cc4cc23)c(C)cc1Cl` had a melting point of 171 to 173 °C. In the case of `COC(=O)C=C1CCC(c2ccc(O)cc2)CC1` (configuration not stated), the melting point fell in the range of 151 to 152 °C.

`Cc1cccc2c1N(CC(=O)N1CC3CCC(CC3)C1)C(=O)C(NC(=O)Nc1cccc(Cc3nnn[nH]3)c1)N=C2c1ccccc1F` (configuration not stated): the melting point was 154 to 168 °C. The value for `C[C@@H]1CN(c2ccc3nc(-c4ccc(F)cc4)c(-c4ccnc5[nH]ccc45)n3n2)CCN1` was 285 to 287 °C; that for `Cc1cc(C)cc(C(=O)c2c(C(C)C)c(=O)[nH]c(=O)n2Cc2cc(C)nc(N3C(=O)c4ccccc4C3=O)c2)c1` was 310 to 311 °C; that for `CC(C)(C)OC(=O)N[C@@H]1CN[C@H]2CCCO[C@H]21` (relative stereo) was 110 to 111 °C. The value for `CC(C)Nc1cccnc1N1CCN(C(=O)c2ccc(C(=O)NC(C)(C)C)cn2)CC1` was 161 to 162 °C; that for `COc1ccccc1NC=C1C(=O)N(c2ccc(C(=O)O)cc2)N=C1C` was > 300 °C; that for `COc1cc(C(=O)NC(C)(C)C)ccc1S(=O)(=O)Cl` was 145 to 149 °C.

For `Cn1cc(Oc2cc(Cl)ccc2Cl)c(=O)c(-c2cccc(C(F)(F)F)c2)c1`, the melting point fell in the range of 162 to 164 °C. As for `CS(=O)(=O)c1ccc(-c2cc(CO)nn2C2CCCCCC2)cc1`, the melting point is 116 to 118 °C.

For the compound `Cc1cc(-c2nc3cccnn3c2-c2ccnc(N)c2)ccc1F`, the melting point lay within 179 to 180 °C. For the compound `CCCCCCCCCCCCC(=O)c1cn(CCCC(=O)O)c2ccccc12`, the melting point fell in the range of 76 to 78 °C. Then `O=C(O)c1cc(=O)c2cccc(COc3ccc(OCc4ccc5ccccc5n4)cc3)c2o1`, with 221 to 224 °C; and `COC(=O)c1cccc(-c2ccnc3c(C(=O)c4cccs4)cnn23)c1`, with 180 to 184 °C. The value for `COc1nccc(Oc2ccc(NC(=O)c3cc(F)cc(N4CCOCC4)c3)c3ccccc23)n1` was 216 to 217 °C. Then `C[C@H](Oc1ccc(-c2cccc(OCC(N)=O)c2)cc1)[C@H](O)CCc1cccnc1`, with 120 to 122 °C. As for `CCOC(=O)c1cnc2c(S)cccn2c1=O`, the melting point lay in the range of 151 to 152 °C.

In turn, `Cc1cc(Oc2cccc([N+](=O)[O-])c2N(C)C(=O)OC(C)(C)C)cc(C)c1NC(=O)OC(C)(C)C` registered a melting point of 154 to 156 °C. The value for `CC(C)S(=O)(=O)c1cccc(-c2nc(=O)c3ccccc3s2)n1` was 205 to 206 °C; that for `Cc1c(C)c2ccc(OCCCN3CCN(Cc4ccc(Cl)cc4)CC3)cc2[nH]c1=O` was 143 to 144 °C.

`CP(=O)(O)CCC(=O)O` displayed a melting point of 95 °C. `c1ccc(-c2cnc3c(c2)ncn3-c2cccc(-c3cccnc3)c2)cc1`: the melting point fell in the range of 179 to 180 °C.

On to `C#Cc1ccc(Br)c(C(F)(F)F)c1`, for which the melting point is < 50 °C. The compound `CCn1c(=O)c(-c2cc(C)cc(C)c2)cc2cnc(Nc3ccccc3)nc21` showed a melting point of 220 to 223 °C. The value for `CCC(=C(c1ccc(O)cc1)c1ccc(O)cc1)c1ccc(OCC(=O)O)c(OC)c1` was 253 to 254 °C. `C1=C(COc2ccccc2)CCN(Cc2c[nH]c3ccccc23)C1` showed a melting point of 140 to 142 °C.

In turn, `CNC(=O)C(NC(=O)OCc1ccccc1)C(N)=O` (configuration not stated) gave a melting point of 178 to 180 °C. The value for `CCOC(=O)c1nc(Cl)n2c1c(Cl)nc1ccccc12` was 132 to 135 °C; that for `O=C1CC(=O)OC2(O1)SC=CS2` was 59 to 60 °C; that for `CN(Cc1ccco1)C(=O)C=C1OC(C)(C)OC1=O` was 83 to 86 °C. In turn, `CCCCN(CCCC)CCCOc1ccc(S(=O)(=O)c2ccc3ccccc3c2)cc1` gave a melting point of 90 °C.

`O=C1c2ccccc2C2(CCCC2)C(=O)N1CCO` gave a melting point of 76 to 77 °C. The value for `CCN(CC)Cc1nc(Cn2cnc3c2c(=O)n(C)c(=O)n3C)no1` was 68 to 70 °C. In turn, `CCn1c(C(F)(F)F)n[nH]c1=S` showed a melting point of 93 °C. Then `CC(=Cc1ccc(N(C)C)cc1Cl)[N+](=O)[O-]`, with 93 to 94 °C; and `CN(C)c1ccc(C2(c3ccc(N(C)C)cc3)Oc3ccccc3-c3[nH]c4ccccc4c32)cc1`, with 145 °C.
